Data taken from patent US20240115704A1, “TREATMENT OF CANCER WITH NK CELLS AND A CD38-TARGETED ANTIBODY” (Artiva Biotherapeutics, Inc., priority 2021, published 2024).

How the values were obtained:
K562 = assay: Cytotoxicity of steroid treated AB-101 cells against K562; type: cell-based; settings: 5:1 E:T
Daudi = assay: Cytotoxicity of steroid treated AB-101 cells against Daudi; type: cell-based; settings: 48 hours; particularly when combined with 500 IU/mL of IL-2; 5:1 E:T
NCI-H929 = assay: Cytotoxicity of steroid treated AB-101 cells against NCI-H929; type: cell-based; settings: 48 hours; particularly when combined with 500 IU/mL of IL-2; 5:1 E:T
[1] = tested on: K562, Daudi, RPMI-8226, and NCI-H929; assay: Impact of steroids on AB-101+daratumumab ADCC; settings: 48 hours steroid treatment; 5:1 E:T; with daratumumab
[2] = tested on: Burkitt's lymphoma cell line Daudi; assay: Complement fixation assay (CDC), assay control tumor line; type: cell-based; settings: human complement serum; lowest concentration tested
Description: Burkitt's lymphoma cell line Daudi was included as an assay control.

[3] = tested on: CD38+ multiple myeloma cell line MM.1S; assay: Daratumumab titration, ADCC by AB-101 cells against MM.1S; type: cell-based; settings: AB-101 at 5:1 E:T, 4 hours
Method: (§1) After 4 hours on co-culture, the samples were analyzed by flow cytometry.

CD38− cell line K562 = assay: Daratumumab titration, cytotoxicity of AB-101 cells against K562; type: cell-based; settings: AB-101 at 5:1 E:T, 4 hours
Method: as §1

Compound | basal cytotoxicity of steroid treated AB-101 cells (K562; 0.1, 1, 10 μM for 48 hours, all concentrations tested, with the exception of one cell lot) | cytotoxicity of steroid treated AB-101 cells with 500 IU/ml of IL-2 (K562; 500 IU/ml IL-2 during steroid treatment) | basal cytotoxicity of steroid treated AB-101 cells (Daudi) | basal cytotoxicity of steroid treated AB-101 cells (NCI-H929) | ADCC potential of steroid treated AB-101 cells [1] | concentration of daratumumab at which lysis reached saturation [2] [µg/mL] | ADCC compared to IgG1 control antibodies [3] | cytotoxicity of AB-101 cells, daratumumab vs IgG control (CD38− cell line K562)
C[C@@H]1C[C@H]2[C@@H]3CCC4=CC(=O)C=C[C@]4(C)[C@@]3(F)[C@@H](O)C[C@]2(C)[C@@]1(O)C(=O)CO [Dexamethasone, (8S,9R,10S,11S,13S,14S,16R,17R)-9-fluoro-11,17-dihydroxy-17-(2-hydroxyacetyl)-10,13,16-trimethyl-6,7,8,11,12,14,15,16-octahydrocyclopenta[a]phenanthren-3-one] | reduced | restored cytotoxicity | enhanced | enhanced | did not abolish |  |  | 
daratumumab: mAb that targets CD38, approved for multiple myeloma |  |  |  |  |  | ≤ 0.41 | elicited ADCC | no change in cytotoxicity
